Key:
Test in all cases: NCI cancer cell line screen (sulforhodamin B)
Type in all cases: cell-based
A549/ATCC = conditions: Homo sapiens, NSCL, 48 h, read-out: log10 GI50 (converted)
Protocol: (§1) The new dual Aurora A/VEGF-R inhibitors 2e and 2n were selected by the National Cancer Institute for screening in its broad cancer cell line panel. The NCI in vitro assay is performed by incubation of cells with test compounds for 48 h and subsequent cell fixation with trichloroacetic acid. The pink dye sulforhodamin B is added, which binds to the proteins of the fixed cells. After washing and solubilizing the bound stain, the optical density is measured spectrophotometrically to determine the relative proliferation of treated and untreated cells.
(§2) Simultaneous inhibition of the Aurora A kinase and the VEGF-R2/3 receptor kinases may represent an interesting dual activity for the treatment of cancer. The National Cancer Institute selected the compounds 2e and 2n as representatives with particularly high inhibitory activity on the above kinases for testing in the IVCLS (in vitro cell line screening). In this screening, compounds are tested for antiproliferative activity on about 60 in vitro cultivated tumor cell lines. Based on this very broad screening on cell lines from nine tumor entities the general antiproliferative potency of compounds is determined. In addition, the bioinformatic tool COMPARE allowed one to draw conclusions on the molecular target of the compounds from the activity patterns on the different cell lines. Similar molecular mechanisms of action of two compounds are assumed if a Pearson correlation coefficient (PCC) of > 0.6 is calculated by COMPARE [52, 53]. […] The selectivity profile of the two compounds is not very pronounced given the overall very similar proliferation inhibition values across all cell lines. A COMPARE analysis determined a PCC = 0.61 for the patterns of test compounds 2e and 2n, which is consistent with an analogous mechanism of action. However, whether this mechanism is actually based on the inhibition of the inhibited Aurora kinases and VEGF receptor kinases cannot be deduced from these profiles.

BT-549 = conditions: Homo sapiens; BT-549, Breast; 48 h; read-out: log10 GI50 (converted)
Protocol: as §1, §2

CAKl-1 = conditions: Homo sapiens; CAKl-1, Renal; 48 h; read-out: log10 GI50 (converted)
Protocol: as §1, §2

DU-145 = conditions: Homo sapiens; DU-145, Prostate; 48 h; read-out: log10 GI50 (converted)
Protocol: as §1, §2

EKVX = conditions: Homo sapiens, NSCL, 48 h, read-out: log10 GI50 (converted)
Protocol: as §1, §2

HCC-2998 = conditions: Homo sapiens; HCC-2998, Colon; 48 h; read-out: log10 GI50 (converted)
Protocol: as §1, §2

HCT-15 = conditions: Homo sapiens; HCT-15, Colon; 48 h; read-out: log10 GI50 (converted)
Protocol: as §1, §2

HT29 = conditions: Homo sapiens, HT-29; HT29, Colon; 48 h; read-out: log10 GI50 (converted)
Protocol: as §1, §2

K-562 = conditions: Homo sapiens, K562; K-562, Leukemia; 48 h; read-out: log10 GI50 (converted)
Protocol: as §1, §2

KM12 = conditions: Homo sapiens; KM12, Colon; 48 h; read-out: log10 GI50 (converted)
Protocol: as §1, §2

MALME-3M = conditions: Homo sapiens, Melanoma, 48 h, read-out: log10 GI50 (converted)
Protocol: as §1, §2

MDA-MB-435 = conditions: Homo sapiens; MDA-MB-435, Melanoma; 48 h; read-out: log10 GI50 (converted)
Protocol: as §1, §2

NCI-H460 = conditions: Homo sapiens; NCI-H460, NSCL; 48 h; read-out: log10 GI50 (converted)
Protocol: as §1, §2

NCI-H522 = conditions: Homo sapiens; NCI-H522, NSCL; 48 h; read-out: log10 GI50 (converted)
Protocol: as §1, §2

NCI/ADR-RES = conditions: Homo sapiens, Ovarian, 48 h, read-out: log10 GI50 (converted)
Protocol: as §1, §2

OVCAR-8 = conditions: Homo sapiens; OVCAR-8, Ovarian; 48 h; read-out: log10 GI50 (converted)
Protocol: as §1, §2

PC-3 = conditions: Homo sapiens; PC-3, Prostate; 48 h; read-out: log10 GI50 (converted)
Protocol: as §1, §2

RPMl-8226 = conditions: Homo sapiens; RPMl-8226, Leukemia; 48 h; read-out: log10 GI50 (converted)
Protocol: as §1, §2

SF-268 = conditions: Homo sapiens; SF-268, CNS; 48 h; read-out: log10 GI50 (converted)
Protocol: as §1, §2

SF-539 = conditions: Homo sapiens; SF-539, CNS; 48 h; read-out: log10 GI50 (converted)
Protocol: as §1, §2

SK-MEL-28 = conditions: Homo sapiens; SK-MEL-28, Melanoma; 48 h; read-out: log10 GI50 (converted)
Protocol: as §1, §2

SK-MEL-5 = conditions: Homo sapiens; SK-MEL-5, Melanoma; 48 h; read-out: log10 GI50 (converted)
Protocol: as §1, §2

SN12C = conditions: Homo sapiens, Renal, 48 h, read-out: log10 GI50 (converted)
Protocol: as §1, §2

SW-620 = conditions: Homo sapiens; SW-620, Colon; 48 h; read-out: log10 GI50 (converted)
Protocol: as §1, §2

U0-31 = conditions: Homo sapiens; U0-31, Renal; 48 h; read-out: log10 GI50 (converted)
Protocol: as §1, §2

UACC-257 = conditions: Homo sapiens; UACC-257, Melanoma; 48 h; read-out: log10 GI50 (converted)
Protocol: as §1, §2

UACC-62 = conditions: Homo sapiens; UACC-62, Melanoma; 48 h; read-out: log10 GI50 (converted)
Protocol: as §1, §2

Compound	GI50 (A549/ATCC) [µM]	GI50 (BT-549) [µM]	GI50 (CAKl-1) [µM]	GI50 (DU-145) [µM]	GI50 (EKVX) [µM]	GI50 (HCC-2998) [µM]	GI50 (HCT-15) [µM]	GI50 (HT29) [µM]	GI50 (K-562) [µM]	GI50 (KM12) [µM]	GI50 (MALME-3M) [µM]	GI50 (MDA-MB-435) [µM]	GI50 (NCI-H460) [µM]	GI50 (NCI-H522) [µM]	GI50 (NCI/ADR-RES) [µM]	GI50 (OVCAR-8) [µM]	GI50 (PC-3) [µM]	GI50 (RPMl-8226) [µM]	GI50 (SF-268) [µM]	GI50 (SF-539) [µM]	further results
O=C1CCCc2cc(-c3ccnc(Nc4ccc(O)cc4)n3)ccc2N1 [Compound 2e, 7-[2-(4-Hydroxyanilino)pyrimidin-4-yl]-1,3,4,5-tetrahydro-2H-1-benzazepin-2-one]	4.47	5.13	4.17	3.39	34.7	8.71	3.24	5.13	3.72	2.57	2.19	3.63	3.16	4.47	> 100	4.07	4.9	3.24	4.37	4.17	GI50 (SK-MEL-28): 5.75 µM; GI50 (SK-MEL-5): 3.09 µM; GI50 (SN12C): 6.17 µM; GI50 (SW-620): 4.79 µM; GI50 (U0-31): 1.74 µM; GI50 (UACC-257): 4.17 µM; GI50 (UACC-62): 9.12 µM
COc1ccc(Nc2nccc(-c3ccc4c(c3)CCCC(=O)N4)n2)cc1O [Compound 2n, 7-[2-(3-Hydroxy-4-methoxyanilino)pyrimidin-4-yl]-1,3,4,5-tetrahydro-2H-1-benzazepin-2-one]	7.94	5.62	5.62	5.01	43.7	22.9	4.57	13.2	4.27	4.79	> 100	5.25	4.68	10	14.1	9.77	12.6	5.25	7.41	4.47	GI50 (SK-MEL-28): 9.12 µM; GI50 (SK-MEL-5): 10 µM; GI50 (SN12C): 5.75 µM; GI50 (SW-620): 4.47 µM; GI50 (U0-31): 3.02 µM; GI50 (UACC-257): 14.8 µM; GI50 (UACC-62): 9.33 µM

Source: PMC7998669, “7-(2-Anilinopyrimidin-4-yl)-1-benzazepin-2-ones Designed by a “Cut and Glue” Strategy Are Dual Aurora A/VEGF-R Kinase Inhibitors” (Molecules, 2021)
